We go through 14 compounds from patent US20260347361A1, “LRRK2 INHIBITORS AND USES THEREOF” (NEURON23, INC, priority 2022, published 2026).

The structures appear in SMILES notation.

In the assay the target is T1, wt human LRRK2 (Homo sapiens, UniProt Q5S007).
T1 construct: wt human LRRK2, catalytic site, catalytic site (ThermoFisher/USA); purchased ThermoFisher
T1 sequence (Q5S007 970-2527 limits assumed): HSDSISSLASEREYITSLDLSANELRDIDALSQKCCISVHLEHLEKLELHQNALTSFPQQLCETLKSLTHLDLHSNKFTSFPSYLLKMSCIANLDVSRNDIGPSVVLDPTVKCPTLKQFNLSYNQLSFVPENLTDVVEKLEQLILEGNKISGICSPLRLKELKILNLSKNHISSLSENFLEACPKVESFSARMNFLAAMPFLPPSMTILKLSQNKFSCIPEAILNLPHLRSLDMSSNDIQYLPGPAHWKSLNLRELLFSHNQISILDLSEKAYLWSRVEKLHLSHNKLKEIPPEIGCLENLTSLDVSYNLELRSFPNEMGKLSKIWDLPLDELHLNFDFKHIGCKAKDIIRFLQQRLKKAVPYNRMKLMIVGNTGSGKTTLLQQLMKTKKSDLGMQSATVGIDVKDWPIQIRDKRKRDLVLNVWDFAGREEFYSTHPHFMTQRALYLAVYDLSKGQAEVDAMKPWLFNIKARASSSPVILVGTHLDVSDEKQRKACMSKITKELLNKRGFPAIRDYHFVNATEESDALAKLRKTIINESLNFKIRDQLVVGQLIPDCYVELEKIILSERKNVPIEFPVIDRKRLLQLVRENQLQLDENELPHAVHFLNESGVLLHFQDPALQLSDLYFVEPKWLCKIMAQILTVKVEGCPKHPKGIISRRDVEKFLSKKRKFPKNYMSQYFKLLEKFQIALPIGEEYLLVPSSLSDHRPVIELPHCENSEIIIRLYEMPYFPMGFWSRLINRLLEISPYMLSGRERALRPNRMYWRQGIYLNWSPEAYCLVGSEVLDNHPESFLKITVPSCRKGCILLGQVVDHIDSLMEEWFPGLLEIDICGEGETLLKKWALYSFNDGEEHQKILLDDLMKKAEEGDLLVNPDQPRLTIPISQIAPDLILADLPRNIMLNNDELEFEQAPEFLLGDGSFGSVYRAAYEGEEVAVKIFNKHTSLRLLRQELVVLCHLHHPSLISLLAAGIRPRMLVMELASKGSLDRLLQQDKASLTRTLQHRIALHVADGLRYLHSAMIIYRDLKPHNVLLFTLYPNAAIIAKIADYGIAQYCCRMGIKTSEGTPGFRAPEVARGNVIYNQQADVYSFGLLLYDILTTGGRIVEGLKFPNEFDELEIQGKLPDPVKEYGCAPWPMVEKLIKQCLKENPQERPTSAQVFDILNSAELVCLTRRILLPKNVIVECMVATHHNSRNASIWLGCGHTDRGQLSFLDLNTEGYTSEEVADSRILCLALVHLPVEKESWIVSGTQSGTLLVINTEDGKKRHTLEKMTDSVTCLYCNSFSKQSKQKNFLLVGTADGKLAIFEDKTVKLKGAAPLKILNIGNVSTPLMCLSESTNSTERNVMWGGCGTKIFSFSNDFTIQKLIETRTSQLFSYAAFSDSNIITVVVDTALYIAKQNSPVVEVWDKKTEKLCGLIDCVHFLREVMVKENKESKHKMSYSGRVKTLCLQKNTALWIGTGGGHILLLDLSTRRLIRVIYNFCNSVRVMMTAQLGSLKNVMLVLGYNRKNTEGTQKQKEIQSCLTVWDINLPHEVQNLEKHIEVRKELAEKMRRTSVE
Put plainly: TR-FRET LanthaScreen Tb Kinase Activity Assay, inhibition of LRRK2 kinase. The class given is biochemical. The settings on record: 2 nM wt human LRRK2, 400 nM fluorescein-ERM (LRRKtide) peptide, 38 µM ATP, 15 min pre-incubation, 120 min at room temperature. Here is the method:
In Table 2, activity is provided as the following: “+++”=IC50 less than 50 nM; “++”=IC50 between 50 nM and 200 nM; “+”=IC50> or =200 nM.
The compounds listed in Table 2 were tested for their inhibitory effect on LRRK2 kinase according to the following procedures.
The protocol for basic TR-FRET LanthaScreen Tb Kinase Activity Assay inhibitor studies were as follows. LanthaScreen Kinase Activity Assays (ThermoFisher/USA) to evaluate inhibitors were performed by addition of 100 nl of test compound in corresponding DMSO dilutions/5 μl of kinase/fluorescein-ERM(LRRKtide) peptide mixture, Compound & kinase were pre-incubated for 15 minutes, then 5 μl of ATP into 384 well small volume plates. After incubation for 120 minutes at room temperature, the detection reagents containing Tb-anti-pLRRKtide antibody were added to monitor phosphorylation level of peptide. Then, after 60 min minutes incubation at room temperature plates were read in Envision. Data analysis of emission ratios was according to LanthaScreen Tb Kinase Activity Assay protocol.
Kinase and assay components were adjusted to final concentrations according to the kit protocol. For LRRK2: 2 nM wt human LRRK2, catalytic site, catalytic site (ThermoFisher/USA), 400 nM peptide, 38 µM ATP in 1× Kinase Buffer A.
Basic protocol for TR-FRET LanthaScreen Tb Kinase Activity Assay inhibitor studies involved two steps:
Enzymatic step: Addition of […] of test compound in corresponding DMSO dilutions, 5 μL of kinase/substrate mixture, 5 μL of ATP into 384 well small volume plates. Incubation for 120 minutes at room temperature.
Detection step: Addition of 10 μL EDTA & antibody, read plate after 60 minutes. Data analysis of emission ratios according to KinEASE assay protocol.
Kinase and assay components were adjusted to final concentrations according to the kit protocol.
(In general: In TR-FRET formats the signal depends on donor and acceptor labels being close together.)
Compound `C[C@@H]1CN(c2ccc3c(c2)-n2ncc(Cl)c2N=C(c2c(F)cccc2F)N3)C[C@H](C)O1` [(2R,6S)-4-(3-chloro-5-(2,6-difluorophenyl)-6H-benzo[f]pyrazolo[1,5-a][1,3,5]triazepin-9-yl)-2,6-dimethylmorpholine] returned an IC50 of 50 to 200 nM.

For `C[C@H]1CN(c2ccc3c(c2)-n2ncc(Cl)c2N=C(c2c(F)cccc2F)N3)C[C@H](C)O1` [(2S,6S)-4-(3-chloro-5-(2,6-difluorophenyl)-6H-benzo[f]pyrazolo[1,5-a][1,3,5]triazepin-9-yl)-2,6-dimethylmorpholine], the IC50 is < 50 nM. Under `C[C@H]1CN(c2cc3c(cn2)NC(c2c(F)cccc2F)=Nc2c(F)cnn2-3)C[C@H](C)O1` [(2S,6S)-4-(5-(2,6-difluorophenyl)-3-fluoro-6H-pyrazolo[1,5-a]pyrido[3,4-f][1,3,5]triazepin-9-yl)-2,6-dimethylmorpholine] stands 50 to 200 nM; under `C[C@H]1CN(c2cc3c(cn2)NC(c2c(F)cccc2F)=Nc2ccnn2-3)C[C@H](C)O1` [(2S,6S)-4-(5-(2,6-difluorophenyl)-6H-pyrazolo[1,5-a]pyrido[3,4-f][1,3,5]triazepin-9-yl)-2,6-dimethylmorpholine], < 50 nM; under `C[C@H]1CN(c2cc3c(cn2)NC(c2c(F)cccc2F)=Nc2c(Cl)cnn2-3)C[C@H](C)O1` [(2S,6S)-4-[5-chloro-8-(2,6-difluorophenyl)-2,3,7,9,12-pentazatricyclo[8.4.0.02,6]tetradeca-1(10),3,5,7,11,13-hexaen-13-yl]-2,6-dimethyl-morpholine], < 50 nM. For `C[C@@H]1COCCN1c1ccc2c(c1)-n1ncc(Cl)c1N=C(c1c(F)cccc1F)N2` [(3R)-4-[3-chloro-5-(2,6-difluorophenyl)-6H-pyrazolo[1,5-a][1,3,5]benzotriazepin-9-yl]-3-methyl-morpholine] the value was < 50 nM; for `C[C@H]1COCCN1c1ccc2c(c1)-n1ncc(Cl)c1N=C(c1c(F)cccc1F)N2` [(3S)-4-[3-chloro-5-(2,6-difluorophenyl)-6H-pyrazolo[1,5-a][1,3,5]benzotriazepin-9-yl]-3-methyl-morpholine], < 50 nM; for `C[C@H]1CN(c2cc3c(cn2)NC(c2c(F)cccc2F)=Nc2c(F)cnn2-3)CCO1` [(S)-4-(5-(2,6-difluorophenyl)-3-fluoro-6H-pyrazolo[1,5-a]pyrido[3,4-f][1,3,5]triazepin-9-yl)-2-methylmorpholine], < 50 nM.

On to `C[C@H]1CN(c2cc3c(cn2)NC(c2c(F)cccc2F)=Nc2ccnn2-3)CCO1` [(S)-4-(5-(2,6-difluorophenyl)-6H-pyrazolo[1,5-a]pyrido[3,4-f][1,3,5]triazepin-9-yl)-2-methylmorpholine], for which the IC50 is < 50 nM. For `CC(C)(O)c1ccc2c(c1)-n1ncc(Cl)c1N=C(c1c(F)cccc1F)N2` [Methyl 2-[3-chloro-5-(2,6-difluorophenyl)-6H-pyrazolo[1,5-a][1,3,5]benzotriazepin-9-yl]propan-2-ol] the value was 50 to 200 nM. For `COC(=O)c1ccc2c(c1)-n1ncc(Cl)c1N=C(c1c(F)cccc1F)N2` [Methyl 3-chloro-5-(2,6-difluorophenyl)-6H-pyrazolo[1,5-a][1,3,5]benzotriazepine-9-carboxylate], the IC50 was < 50 nM. On to `O=C(O)c1ccc2c(c1)-n1ncc(Cl)c1N=C(c1c(F)cccc1F)N2` [Methyl 3-chloro-5-(2,6-difluorophenyl)-6H-pyrazolo[1,5-a][1,3,5]benzotriazepine-9-carboxylic acid], for which the IC50 is > 200 nM. For `COC(=O)c1cnc2c(c1)-n1ncc(Cl)c1N=C(c1c(F)cccc1F)N2` [Methyl 5-chloro-8-(2,6-difluorophenyl)-2,3,7,9,11-pentazatricyclo[8.4.0.02,6]tetradeca-1(10),3,5,7,11,13-hexaene-13-carboxylate] the value was < 50 nM.

For the compound `CC(C)(C)NC(=O)c1ccc2c(c1)-n1ncc(Cl)c1N=C(c1c(F)cccc1F)N2` [N-(tert-butyl)-3-chloro-5-(2,6-difluorophenyl)-6H-benzo[f]pyrazolo[1,5-a][1,3,5]triazepine-9-carboxamide], the IC50 was < 50 nM.

For orientation: IC50 means the point on the concentration scale where inhibition reaches its midpoint. The low end stands for inhibition by little substance, the high end for a need for much substance.
